rIP data for 18 molecules are collected here from US9260467B2, “Sialic acid dimers” (priority 2011, dated 2016).

The target in this assay is T1, Siglec-2 (CD22) (Homo sapiens, UniProt P20273).
T1 sequence (P20273 20-847): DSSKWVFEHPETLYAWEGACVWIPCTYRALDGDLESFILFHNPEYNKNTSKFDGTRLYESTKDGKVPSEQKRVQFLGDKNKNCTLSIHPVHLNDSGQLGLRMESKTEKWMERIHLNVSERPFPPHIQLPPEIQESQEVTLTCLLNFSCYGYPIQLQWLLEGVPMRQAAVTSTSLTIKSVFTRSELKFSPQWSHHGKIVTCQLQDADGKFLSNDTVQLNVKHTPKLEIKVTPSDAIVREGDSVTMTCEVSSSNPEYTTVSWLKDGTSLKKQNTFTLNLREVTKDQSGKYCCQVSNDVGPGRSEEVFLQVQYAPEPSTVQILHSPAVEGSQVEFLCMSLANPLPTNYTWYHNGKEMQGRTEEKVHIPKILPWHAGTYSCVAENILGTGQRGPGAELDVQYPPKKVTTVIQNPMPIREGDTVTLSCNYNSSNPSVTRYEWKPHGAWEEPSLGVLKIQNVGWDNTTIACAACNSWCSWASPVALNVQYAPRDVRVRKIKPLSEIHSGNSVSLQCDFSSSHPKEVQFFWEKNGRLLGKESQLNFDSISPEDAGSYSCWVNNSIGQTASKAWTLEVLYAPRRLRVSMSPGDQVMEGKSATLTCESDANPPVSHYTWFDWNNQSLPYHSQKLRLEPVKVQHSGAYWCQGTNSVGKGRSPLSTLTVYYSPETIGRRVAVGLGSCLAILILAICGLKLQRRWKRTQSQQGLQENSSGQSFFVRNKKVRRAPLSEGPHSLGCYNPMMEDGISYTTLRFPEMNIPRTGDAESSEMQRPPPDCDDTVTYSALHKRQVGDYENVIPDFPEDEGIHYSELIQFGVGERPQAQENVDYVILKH
The assay can be described thus: new affinity assay: displacement of biotinylated compound 155 from sialidase-treated Daudi cells, FACS with streptavidin-PE. The class given is binding. Also on record: endogenous in cells; host or cells: Daudi (human B-cell lymphoma line). Particulars: Table II; rIP values set relative to compound 38; Daudi cells, displacement of compound 155. As for the experimental part: To determine the affinity of the compound of the formula (I), approximately 5×10^6 to 2×10^8 cells of the human B-cell lymphoma line “Daudi” were incubated with sialidase (A. ureafaciens) at 37° C. for 1 h (final concentration 0.1 unit/ml). […] Batches of 1-2×10^6 cells were transferred to sample vessels, and incubated on ice for 15 min with serial concentrations (10-fold dilutions, 1 mM to 1×10^−7 mM) of the substance under measurement (inhibitor). The reaction volume was 50 μl. Then 50 microliters of compound 155 (4-micromolar) were added, and incubation took place for 20 min Washing with FACS buffer (PBS, 0.1 BSA, 0.01% sodium azide) was followed by incubation with streptavidin-PE in the dark for 15 min, followed by washing and measurement of the bound amount of […] via the streptavidin-PE in the FACS. For the determination of 0% displacement of the compound 155, cells without inhibitor were measured. For the determination of 100% displacement, cells were measured without compound 155 and without inhibitor. For each assay, four substances and one reference were measured. The IC50 values determined in each assay were subsequently converted into values of rIP (relative Inhibitory Potency). […]
For `CC(=O)N[C@H]1[C@H]([C@H](O)[C@H](O)CNC(=O)c2ccc(-c3ccccn3)cc2)O[C@@](OCCCSCCNC(=O)c2ccc(C(=O)NCCSCCCO[C@]3(C(=O)[O-])C[C@H](O)[C@@H](NC(C)=O)[C@H]([C@H](O)[C@H](O)CNC(=O)c4ccc(-c5ccccn5)cc4)O3)cc2)(C(=O)[O-])C[C@@H]1O.[Na+].[Na+]` [Compound 77], the rIP came out at 95.

For `CC(=O)N[C@H]1[C@H]([C@H](O)[C@H](O)CNC(=O)c2ccc3c(c2)C(=O)c2ccccc2-3)O[C@@](OCCCSCCNC(=O)c2ccc(C(=O)NCCSCCCO[C@]3(C(=O)[O-])C[C@H](O)[C@@H](NC(C)=O)[C@H]([C@H](O)[C@H](O)CNC(=O)c4ccc5c(c4)C(=O)c4ccccc4-5)O3)cc2)(C(=O)[O-])C[C@@H]1O.[Na+].[Na+]` [Compound 78], the rIP turned out to be 27.

`CC(=O)N[C@H]1[C@H]([C@H](O)[C@H](O)CNC(=O)Cc2ccc(-c3ccccc3)cc2)O[C@@](OCCCSCCNC(=O)c2ccc(C(=O)NCCSCCCO[C@]3(C(=O)[O-])C[C@H](O)[C@@H](NC(C)=O)[C@H]([C@H](O)[C@H](O)CNC(=O)Cc4ccc(-c5ccccc5)cc4)O3)cc2)(C(=O)[O-])C[C@@H]1O.[Na+].[Na+]` [Compound 79]: the rIP is listed as 181.

As to `CC(=O)N[C@H]1[C@H]([C@H](O)[C@H](O)CNC(=O)c2ccc(-c3cccs3)cc2)O[C@@](OCCCSCCNC(=O)c2ccc(C(=O)NCCSCCCO[C@]3(C(=O)[O-])C[C@H](O)[C@@H](NC(C)=O)[C@H]([C@H](O)[C@H](O)CNC(=O)c4ccc(-c5cccs5)cc4)O3)cc2)(C(=O)[O-])C[C@@H]1O.[Na+].[Na+]` [Compound 80], the rIP is 14342.

Turning to `CC(=O)N[C@H]1[C@H]([C@H](O)[C@H](O)CNC(=O)c2ccc(-c3ccsc3)cc2)O[C@@](OCCCSCCNC(=O)c2ccc(C(=O)NCCSCCCO[C@]3(C(=O)[O-])C[C@H](O)[C@@H](NC(C)=O)[C@H]([C@H](O)[C@H](O)CNC(=O)c4ccc(-c5ccsc5)cc4)O3)cc2)(C(=O)[O-])C[C@@H]1O.[Na+].[Na+]` [Compound 81], the rIP is reported as 2068.

Turning to `CC(=O)N[C@H]1[C@H]([C@H](O)[C@H](O)CNC(=O)c2ccc(-c3ccco3)cc2)O[C@@](OCCCSCCNC(=O)c2ccc(C(=O)NCCSCCCO[C@]3(C(=O)[O-])C[C@H](O)[C@@H](NC(C)=O)[C@H]([C@H](O)[C@H](O)CNC(=O)c4ccc(-c5ccco5)cc4)O3)cc2)(C(=O)[O-])C[C@@H]1O.[Na+].[Na+]` [Compound 82], the rIP was found to be 752.

As to `CC(=O)N[C@H]1[C@H]([C@H](O)[C@H](O)CNC(=O)/C=C/c2ccccc2)O[C@@](OCCCSCCNC(=O)c2ccc(C(=O)NCCSCCCO[C@]3(C(=O)[O-])C[C@H](O)[C@@H](NC(C)=O)[C@H]([C@H](O)[C@H](O)CNC(=O)/C=C/c4ccccc4)O3)cc2)(C(=O)[O-])C[C@@H]1O.[Na+].[Na+]` [Compound 83], the rIP turned out to be 73.

`CC(=O)N[C@H]1[C@H]([C@H](O)[C@H](O)CNS(=O)(=O)c2ccc(-c3ccccc3)cc2)O[C@@](OCCCSCCNC(=O)c2ccc(C(=O)NCCSCCCO[C@]3(C(=O)[O-])C[C@H](O)[C@@H](NC(C)=O)[C@H]([C@H](O)[C@H](O)CNS(=O)(=O)c4ccc(-c5ccccc5)cc4)O3)cc2)(C(=O)[O-])C[C@@H]1O.[Na+].[Na+]` [Compound 84] yielded a rIP of 9.

Take `CC(=O)N[C@H]1[C@H]([C@H](O)[C@H](O)CNCc2ccc(-c3ccccc3)cc2)O[C@@](OCCCSCCNC(=O)c2ccc(C(=O)NCCSCCCO[C@]3(C(=O)[O-])C[C@H](O)[C@@H](NC(C)=O)[C@H]([C@H](O)[C@H](O)CNCc4ccc(-c5ccccc5)cc4)O3)cc2)(C(=O)[O-])C[C@@H]1O.[Na+].[Na+]` [Compound 85]: the rIP was determined as 1.

The molecule `CC(=O)N[C@H]1[C@H]([C@H](O)[C@H](O)CNC(=O)c2ccc(-c3ccccc3)cc2)O[C@@](OCC(=O)NCCCC(=O)Nc2ccc(NC(=O)CCCNC(=O)CO[C@]3(C(=O)[O-])C[C@H](O)[C@@H](NC(C)=O)[C@H]([C@H](O)[C@H](O)CNC(=O)c4ccc(-c5ccccc5)cc4)O3)cc2)(C(=O)[O-])C[C@@H]1O.[Na+].[Na+]` [Compound 90] displayed a rIP of 1445.

In turn, `CC(=O)N[C@H]1[C@H]([C@H](O)[C@H](O)CNC(=O)c2ccc(-c3ccccc3)cc2)O[C@@](OCCCCCCNC(=O)c2ccc(C(=O)NCCSCCCO[C@]3(C(=O)O)C[C@H](O)[C@@H](NC(C)=O)[C@H]([C@H](O)[C@H](O)CNC(=O)c4ccc(-c5ccccc5)cc4)O3)cc2)(C(=O)O)C[C@@H]1O` [Compound 92] yielded a rIP of 3788.

In turn, `CC(=O)N[C@H]1[C@H]([C@H](O)[C@H](O)Cn2cc(-c3ccccc3)nn2)O[C@@](OCCCSCCNC(=O)c2ccc(C(=O)NCCSCCCO[C@]3(C(=O)[O-])C[C@H](O)[C@@H](NC(C)=O)[C@H]([C@H](O)[C@H](O)Cn4cc(-c5ccccc5)nn4)O3)cc2)(C(=O)[O-])C[C@@H]1O.[Na+].[Na+]` [Compound 95] registered a rIP of 6.

Molecule `CC(=O)N[C@H]1[C@H]([C@H](O)[C@H](O)CNC(=O)c2ccc(-c3ccccc3)cc2)O[C@@](OCCCSCCNC(=O)c2ccc(C(=O)NCCSCCCO[C@]3(C(=O)[O-])C[C@H](O)[C@@H](NC(C)=O)[C@H]([C@H](O)[C@H](O)CNC(=O)c4ccc(C5CCCCC5)cc4)O3)cc2)(C(=O)[O-])C[C@@H]1O.[Na+].[Na+]` [Compound 103] returned a rIP of 185.

In turn, `CC(=O)N[C@H]1[C@H]([C@H](O)[C@H](O)CNC(=O)c2ccc(-c3ccccc3)cc2)O[C@](C(=O)[O-])(n2cc(CCCCNC(=O)c3ccc(C(=O)NCCCCc4cn([C@]5(C(=O)[O-])C[C@H](O)[C@@H](NC(C)=O)[C@H]([C@H](O)[C@H](O)CNC(=O)c6ccc(-c7ccccc7)cc6)O5)nn4)cc3)nn2)C[C@@H]1O.[Na+].[Na+]` [Compound 110] returned a rIP of 12.

With `CC(=O)N[C@H]1[C@H]([C@H](O)[C@H](O)CNC(=O)c2ccc(-c3ccccc3)cc2)O[C@@](OCCCSCCNC(=O)c2ccc(C(=O)NCCSCCCO[C@]3(C(=O)[O-])C[C@H](OC(=O)c4ccccc4)[C@@H](NC(C)=O)[C@H]([C@H](O)[C@H](O)CNC(=O)c4ccc(-c5ccccc5)cc4)O3)cc2)(C(=O)[O-])C[C@@H]1OC(=O)c1ccccc1.[Na+].[Na+]` [Compound 113], the rIP turned out to be 3522.

For `CC(=O)N[C@H]1[C@H]([C@H](O)[C@H](O)CNC(=O)c2ccc(-c3ccccc3)cc2)O[C@@](NC(=O)CCCCCNC(=O)c2ccc(C(=O)NCCCCCC(=O)N[C@]3(C(=O)[O-])C[C@H](O)[C@@H](NC(C)=O)[C@H]([C@H](O)[C@H](O)CNC(=O)c4ccc(-c5ccccc5)cc4)O3)cc2)(C(=O)[O-])C[C@@H]1O.[Na+].[Na+]` [Compound 116], the rIP is below 1.

Molecule `CC(=O)N[C@H]1[C@H]([C@H](O)[C@H](O)CNC(=O)c2ccc(-c3ccccc3)cc2)O[C@@](OCc2cn(CCNC(=O)c3ccc(C(=O)NCCn4cc(CO[C@]5(C(=O)[O-])C[C@H](O)[C@@H](NC(C)=O)[C@H]([C@H](O)[C@H](O)CNC(=O)c6ccc(-c7ccccc7)cc6)O5)nn4)cc3)nn2)(C(=O)[O-])C[C@@H]1O.[Na+].[Na+]` [Compound 125] gave a rIP of 8.

Molecule `CC(=O)N[C@H]1[C@H]([C@H](O)[C@H](O)CNC(=O)Cc2ccc3ccccc3c2)O[C@@](OCCCSCCNC(=O)c2ccc(-c3ccc(C(=O)NCCSCCCO[C@]4(C(=O)[O-])C[C@H](O)[C@@H](NC(C)=O)[C@H]([C@H](O)[C@H](O)CNC(=O)Cc5ccc6ccccc6c5)O4)cc3)cc2)(C(=O)[O-])C[C@@H]1O.[Na+].[Na+]` [Compound 127] showed a rIP of 74.
